Measured values taken from patent US20150105252A1, “SUBSTITUTED PYRAZOLES AS HERBICIDES” (E I DU PONT DE NEMOURS AND COMPANY, priority 2013, published 2015).

How the values were obtained:
Italian ryegrass = experiment: Test F preemergence; format: in vivo, Lolium multiflorum
Outline: (§1)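 Greenhouse study; evaluation window 14–21 days post-treatment. Seedlings sprayed postemergence measured 2–18 cm, while preemergence treatments went on silt loam soil. Non-phytotoxic solvent mixture with surfactant served as vehicle; response assessed by eye, 0–100 scale.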

field bindweed = experiment: Test F preemergence; format: in vivo, Convolvulus arvensis
Outline: as §1

field poppy = experiment: Test D postemergence; format: in vivo, Papaver rhoeas; settings: scale 0 to 100
Outline: (§2)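 Visual 0–100 control ratings at 14–21 days in a controlled growth environment. Application preemergence onto silt loam or postemergence onto 2–18 cm seedlings, using a non-phytotoxic solvent formulation with surfactant.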

galium = experiment: Test D preemergence; format: in vivo, Galium aparine; settings: scale 0 to 100
Outline: as §2

mustard, wild = experiment: Test D postemergence; format: in vivo, Sinapis arvensis; settings: scale 0 to 100
Outline: as §2

chickweed = experiment: Test D postemergence; format: in vivo, Stellaria media; settings: scale 0 to 100
Outline: as §2

morningglory = experiment: Test F preemergence; format: in vivo, Ipomoea coccinea
Outline: as §1

buckwheat, wild = experiment: Test D preemergence; format: in vivo, Polygonum convolvulus; settings: scale 0 to 100
Outline: as §2

oat, wild = experiment: Test D postemergence; format: in vivo, Avena fatua; settings: scale 0 to 100
Outline: as §2

wheat, spring = experiment: Test D postemergence; format: in vivo, Triticum aestivum; settings: scale 0 to 100
Outline: as §2

wheat, winter = experiment: Test D postemergence; format: in vivo, Triticum aestivum; settings: scale 0 to 100
Outline: as §2

barley, winter = experiment: Test D preemergence; format: in vivo, Hordeum vulgare; settings: scale 0 to 100
Outline: as §2

barley, spring = experiment: Test D preemergence; format: in vivo, Hordeum vulgare; settings: scale 0 to 100
Outline: as §2

bromegrass, downy = experiment: Test D postemergence; format: in vivo, Bromus tectorum; settings: scale 0 to 100
Outline: as §2

[1] = Preemergence, 31 g ai/ha, scale 0 to 100
[2] = Preemergence, 62 g ai/ha, scale 0 to 100
[3] = Preemergence, 125 g ai/ha, scale 0 to 100
[4] = preemergence, 8 g ai/ha, scale 0 to 100, 100 is complete control
[5] = preemergence, 16 g ai/ha, scale 0 to 100, 100 is complete control
[6] = Preemergence, 16 g ai/ha, scale 0 to 100

CCCc1cc(C(=O)NCC(F)(F)F)nn1Cc1ccnc(C(F)(F)F)c1 [Compound 105]
Plant response rating, Italian Ryegrass (Italian ryegrass; [1]): 50 | Plant response rating, Italian Ryegrass (Italian ryegrass; [2]): 60 | Plant response rating, Italian Ryegrass (Italian ryegrass; [3]): 80 | Plant response rating, Italian Ryegrass (Italian ryegrass; [4]): 0 | Plant response rating, Italian Ryegrass (Italian ryegrass; [5]): 0 | Plant response rating, Field Bindweed (field bindweed; [1]): 75 | Plant response rating, Field Bindweed (field bindweed; [2]): 40 | Plant response rating, Field Bindweed (field bindweed; [3]): 100 | Plant response rating, Field Bindweed (field bindweed; [4]): 0 | Plant response rating, Field Bindweed (field bindweed; [5]): 10 | Field Poppy plant response rating (field poppy; Postemergence, 31 g ai/ha): 65 | Field Poppy plant response rating (field poppy; Postemergence, 125 g ai/ha): 80 | Field Poppy plant response rating (field poppy; Postemergence, 250 g ai/ha): 95 | Field Poppy plant response rating (field poppy; postemergence, 62 g ai/ha): 80 | Plant response rating, Galium (galium; 31 g ai/ha): 100 | Plant response rating, Galium (galium; 62 g ai/ha): 100 | Plant response rating, Galium (galium; 125 g ai/ha): 100 | Plant response rating, Galium (galium; 250 g ai/ha): 100 | Mustard, Wild plant response rating (mustard, wild; Postemergence, 31 g ai/ha): 70 | Mustard, Wild plant response rating (mustard, wild; Postemergence, 125 g ai/ha): 85 | Mustard, Wild plant response rating (mustard, wild; Postemergence, 250 g ai/ha): 90 | Mustard, Wild plant response rating (mustard, wild; postemergence, 62 g ai/ha): 60 | Chickweed plant response rating (chickweed; Postemergence, 31 g ai/ha): 20 | Chickweed plant response rating (chickweed; Postemergence, 125 g ai/ha): 70 | Chickweed plant response rating (chickweed; Postemergence, 250 g ai/ha): 80 | Chickweed plant response rating (chickweed; postemergence, 62 g ai/ha): 55 | Plant response rating, Morningglory (morningglory; [1]): 25 | Plant response rating, Morningglory (morningglory; [2]): 90 | Plant response rating, Morningglory (morningglory; [3]): 95 | Plant response rating, Morningglory (morningglory; [4]): 20 | Plant response rating, Morningglory (morningglory; [5]): 25 | Plant response rating, Buckwheat, Wild (buckwheat, wild; 31 g ai/ha): 85 | Plant response rating, Buckwheat, Wild (buckwheat, wild; 62 g ai/ha): 90 | Plant response rating, Buckwheat, Wild (buckwheat, wild; 125 g ai/ha): 95 | Plant response rating, Buckwheat, Wild (buckwheat, wild; 250 g ai/ha): 100 | Oat, Wild plant response rating (oat, wild; Postemergence, 31 g ai/ha): 15 | Oat, Wild plant response rating (oat, wild; Postemergence, 125 g ai/ha): 25 | Oat, Wild plant response rating (oat, wild; Postemergence, 250 g ai/ha): 50 | Oat, Wild plant response rating (oat, wild; postemergence, 62 g ai/ha): 20 | Wheat, Spring plant response rating (wheat, spring; Postemergence, 31 g ai/ha): 5 | Wheat, Spring plant response rating (wheat, spring; Postemergence, 125 g ai/ha): 20 | Wheat, Spring plant response rating (wheat, spring; Postemergence, 250 g ai/ha): 40 | Wheat, Spring plant response rating (wheat, spring; postemergence, 62 g ai/ha): 10 | Wheat, Winter plant response rating (wheat, winter; Postemergence, 31 g ai/ha): 10 | Wheat, Winter plant response rating (wheat, winter; Postemergence, 125 g ai/ha): 40 | Wheat, Winter plant response rating (wheat, winter; Postemergence, 250 g ai/ha): 70 | Wheat, Winter plant response rating (wheat, winter; postemergence, 62 g ai/ha): 15 | Plant response rating, Barley, Winter (barley, winter; 31 g ai/ha): 5 | Plant response rating, Barley, Winter (barley, winter; 62 g ai/ha): 40 | Plant response rating, Barley, Winter (barley, winter; 125 g ai/ha): 70 | Plant response rating, Barley, Winter (barley, winter; 250 g ai/ha): 95 | Plant response rating, Barley, Spring (barley, spring; 31 g ai/ha): 15 | Plant response rating, Barley, Spring (barley, spring; 62 g ai/ha): 40 | Plant response rating, Barley, Spring (barley, spring; 125 g ai/ha): 65 | Plant response rating, Barley, Spring (barley, spring; 250 g ai/ha): 85 | Bromegrass, Downy plant response rating (bromegrass, downy; Postemergence, 31 g ai/ha): 10 | Bromegrass, Downy plant response rating (bromegrass, downy; Postemergence, 125 g ai/ha): 20 | Bromegrass, Downy plant response rating (bromegrass, downy; Postemergence, 250 g ai/ha): 30 | Bromegrass, Downy plant response rating (bromegrass, downy; postemergence, 62 g ai/ha): 15

CCOc1cc(C(=O)NC(C)C)nn1Cc1ccnc(C(F)(F)F)c1 [Compound 188]
Plant response rating, Italian Ryegrass (Italian ryegrass; [2]): 70 | Plant response rating, Italian Ryegrass (Italian ryegrass; [3]): 80 | Plant response rating, Italian Ryegrass (Italian ryegrass; [4]): 0 | Plant response rating, Field Bindweed (field bindweed; [6]): 30 | Plant response rating, Field Bindweed (field bindweed; [2]): 40 | Plant response rating, Field Bindweed (field bindweed; [3]): 100 | Plant response rating, Field Bindweed (field bindweed; [4]): 35 | Field Poppy plant response rating (field poppy; Postemergence, 31 g ai/ha): 60 | Field Poppy plant response rating (field poppy; Postemergence, 125 g ai/ha): 75 | Field Poppy plant response rating (field poppy; Postemergence, 250 g ai/ha): 95 | Field Poppy plant response rating (field poppy; postemergence, 62 g ai/ha): 60 | Plant response rating, Galium (galium; 62 g ai/ha): 95 | Plant response rating, Galium (galium; 125 g ai/ha): 100 | Plant response rating, Galium (galium; 250 g ai/ha): 100 | Mustard, Wild plant response rating (mustard, wild; Postemergence, 31 g ai/ha): 50 | Mustard, Wild plant response rating (mustard, wild; Postemergence, 125 g ai/ha): 60 | Mustard, Wild plant response rating (mustard, wild; Postemergence, 250 g ai/ha): 85 | Mustard, Wild plant response rating (mustard, wild; postemergence, 62 g ai/ha): 50 | Chickweed plant response rating (chickweed; Postemergence, 31 g ai/ha): 65 | Chickweed plant response rating (chickweed; Postemergence, 125 g ai/ha): 75 | Chickweed plant response rating (chickweed; Postemergence, 250 g ai/ha): 95 | Chickweed plant response rating (chickweed; postemergence, 62 g ai/ha): 65 | Plant response rating, Morningglory (morningglory; [6]): 30 | Plant response rating, Morningglory (morningglory; [2]): 70 | Plant response rating, Morningglory (morningglory; [3]): 100 | Plant response rating, Morningglory (morningglory; [4]): 65 | Plant response rating, Buckwheat, Wild (buckwheat, wild; 31 g ai/ha): 100 | Plant response rating, Buckwheat, Wild (buckwheat, wild; 62 g ai/ha): 100 | Plant response rating, Buckwheat, Wild (buckwheat, wild; 125 g ai/ha): 100 | Plant response rating, Buckwheat, Wild (buckwheat, wild; 250 g ai/ha): 100 | Oat, Wild plant response rating (oat, wild; Postemergence, 31 g ai/ha): 15 | Oat, Wild plant response rating (oat, wild; Postemergence, 125 g ai/ha): 25 | Oat, Wild plant response rating (oat, wild; Postemergence, 250 g ai/ha): 70 | Oat, Wild plant response rating (oat, wild; postemergence, 62 g ai/ha): 15 | Wheat, Spring plant response rating (wheat, spring; Postemergence, 31 g ai/ha): 10 | Wheat, Spring plant response rating (wheat, spring; Postemergence, 125 g ai/ha): 15 | Wheat, Spring plant response rating (wheat, spring; Postemergence, 250 g ai/ha): 40 | Wheat, Spring plant response rating (wheat, spring; postemergence, 62 g ai/ha): 10 | Wheat, Winter plant response rating (wheat, winter; Postemergence, 31 g ai/ha): 25 | Wheat, Winter plant response rating (wheat, winter; Postemergence, 125 g ai/ha): 30 | Wheat, Winter plant response rating (wheat, winter; Postemergence, 250 g ai/ha): 65 | Wheat, Winter plant response rating (wheat, winter; postemergence, 62 g ai/ha): 25 | Plant response rating, Barley, Winter (barley, winter; 31 g ai/ha): 35 | Plant response rating, Barley, Winter (barley, winter; 62 g ai/ha): 70 | Plant response rating, Barley, Winter (barley, winter; 125 g ai/ha): 80 | Plant response rating, Barley, Winter (barley, winter; 250 g ai/ha): 100 | Plant response rating, Barley, Spring (barley, spring; 31 g ai/ha): 65 | Plant response rating, Barley, Spring (barley, spring; 62 g ai/ha): 75 | Plant response rating, Barley, Spring (barley, spring; 125 g ai/ha): 85 | Plant response rating, Barley, Spring (barley, spring; 250 g ai/ha): 95 | Bromegrass, Downy plant response rating (bromegrass, downy; Postemergence, 31 g ai/ha): 15 | Bromegrass, Downy plant response rating (bromegrass, downy; Postemergence, 125 g ai/ha): 15 | Bromegrass, Downy plant response rating (bromegrass, downy; Postemergence, 250 g ai/ha): 20 | Bromegrass, Downy plant response rating (bromegrass, downy; postemergence, 62 g ai/ha): 15
